Source: US20070015828A1 (Wyeth, priority 2005, published 2007)

How the values were obtained:
Assay type in all cases: physicochemical
pH-Solubility = details: free base
Hygroscopicity = assay: Hygroscopicity
[1] = Solution Stability in aqueous solutions; details: room temperature, all aqueous solutions (pH 1.6-10.5)
[2] = Octanol/Water Partitioning Coefficient; details: @ pH 6

Row | pH-Solubility (pH-Solubility; Final pH 1.60) | pH-Solubility (pH-Solubility; Final pH 7.62) | pH-Solubility (pH-Solubility; Final pH 8.21) | pH-Solubility (pH-Solubility; Final pH 9.00) | pH-Solubility (pH-Solubility; Final pH 10.5) | Hygroscopicity, weight gain (Hygroscopicity; @ 60% RH) [%] | Hygroscopicity, weight gain (Hygroscopicity; @ 90% RH, weight gain was lost when returned to 10% RH or 0% RH) | Octanol/Water Partitioning Coefficient Coct/Caq [2] | Structure (SMILES) | Hygroscopicity (Hygroscopicity) | Solution Stability, time stable [1]
1 | Final pH 1.60 >10.71 mg/ml | Final pH 7.62 >10.00 mg/ml | Final pH 8.21 >10.00 mg/ml | Final pH 9.00 7.65 mg/ml | Final pH 10.5 7.65 mg/ml | 0.44 | 60% RH, 1.2% weight gain @ 90% RH, | Coct/Caq @ pH 6 = 6.857 | COC1CCC(O)(C(CN(C)C)c2ccc(O)cc2)CC1 (stereo not drawn) [4-[2-dimethylamino-1-(cis-1-hydroxy-4-methoxy-cyclohexyl)-ethyl]-phenol] | Non-hygroscopic | The compound was stable for at least 72 hours
2 |  |  |  |  |  |  |  |  | CN(C)CC(c1ccc(O)cc1)[C@]1(O)CC[C@@H](O)CC1.O=C(O)CCC(=O)O (stereo partly drawn) [Succinate salt, 1-[2-dimethylamino-1-(4-phenol)ethyl]-cis-1,4-cyclohexandiol succinate] | hygroscopic | 
